The record followed here is patent publication US7125990B2, “Imidazolyl derivatives as corticotropin releasing factor inhibitors” (Bristol-Myers Squibb COmpany, priority 2001, dated 2006).

Some results are limits rather than exact numbers.

For the assay, the target named is T1, CRF1 receptors (Homo sapiens, UniProt P34998).
T1 construct: endogenous in cells; host or cells: IMR-32 cells, transformed with 2.5 µM 5'-bromo-2'-deoxyuridine for 10 days; membrane preparation
T1 sequence (P34998 24-415): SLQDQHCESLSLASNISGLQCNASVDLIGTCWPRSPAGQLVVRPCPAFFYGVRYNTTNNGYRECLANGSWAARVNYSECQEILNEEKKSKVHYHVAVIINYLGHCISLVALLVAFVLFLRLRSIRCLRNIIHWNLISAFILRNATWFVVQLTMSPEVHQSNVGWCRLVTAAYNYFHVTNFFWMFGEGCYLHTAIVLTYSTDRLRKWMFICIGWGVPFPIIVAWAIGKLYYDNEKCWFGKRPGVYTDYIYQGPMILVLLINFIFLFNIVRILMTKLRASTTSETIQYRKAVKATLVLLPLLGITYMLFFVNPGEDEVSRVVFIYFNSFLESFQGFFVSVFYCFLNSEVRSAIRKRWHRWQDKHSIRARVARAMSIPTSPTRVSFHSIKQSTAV
Kind of assay: CRF1 receptor radioligand binding assay ([125I]-oCRF competition, IMR-32 cell membranes). The following applies: IMR-32 cell membranes, [125I]-oCRF 100 pM; read-out: Ki (CRF-1R). An outline of the steps:
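Buffer: Tris pH 7.2 with MgCl2, BSA, Triton X-100, aprotinin, leupeptin; reaction stopped with ice-cold wash and filtered. Nonspecific binding set with 10 μM oCRF.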
The Ki is the dissociation constant of the complex between target and ligand, obtained from inhibition or displacement. As to `Cc1cc(C)c(N2CCCn3c2nc(C(F)(F)F)c3CN(CCC(F)(F)F)Cc2ccccc2)c(Cl)c1` [Example 125, Benzyl-[8-(2-chloro-4,6-dimethyl-phenyl)-2-trifluoromethyl-5,6,7,8-tetrahydro-imidazo[1,2-a]pyrimidin-3-ylmethyl]-(3,3,3-trifluoro-propyl)-amine], the Ki was less than 1000 nM. The same measure for `Cc1cc(C)c(N2CCCn3c2nc(C(F)(F)F)c3CN(CCC2CC2)CC(F)(F)F)c(Cl)c1` [Example 126, [8-(2-Chloro-4,6-dimethyl-phenyl)-2-trifluoromethyl-5,6,7,8-tetrahydro-imidazo[1,2-a]pyrimidin-3-ylmethyl]-(2-cyclopropyl-ethyl)-(2,2,2-trifluoro-ethyl)-amine]: less than 1000 nM; for `Cc1cc(C)c(N2CCCn3c2nc(C(F)(F)F)c3CN(CCC(F)(F)F)Cc2ccc(F)cc2)c(Cl)c1` [Example 127, [8-(2-Chloro-4,6-dimethyl-phenyl)-2-trifluoromethyl-5,6,7,8-tetrahydro-imidazo[1,2-a]pyrimidin-3-ylmethyl]-(4-fluoro-benzyl)-(3,3,3-trifluoro-propyl)-amine]: less than 1000 nM; for `Cc1cc(C)c(N2CCCn3c2nc(C(F)(F)F)c3CN(CCC(F)(F)F)Cc2ccc(Cl)cc2)c(Cl)c1` [Example 128, (4-Chloro-benzyl)-[8-(2-chloro-4,6-dimethyl-phenyl)-2-trifluoromethyl-5,6,7,8-tetrahydro-imidazo[1,2-a]pyrimidin-3-ylmethyl]-(3,3,3-trifluoro-propyl)-amine]: less than 1000 nM.

`CCCN(Cc1ccc(Cl)cc1)Cc1c(C(F)(F)F)nc2n1CCCN2c1c(C)cc(C)cc1Cl` [Example 129, (4-Chloro-benzyl)-[8-(2-chloro-4,6-dimethyl-phenyl)-2-trifluoromethyl-5,6,7,8-tetrahydro-imidazo[1,2-a]pyrimidin-3-ylmethyl]-propyl-amine]: the inhibition constant Ki was less than 1000 nM. In the case of `CCCN(Cc1ccccc1)Cc1c(C(F)(F)F)nc2n1CCCN2c1c(C)cc(C)cc1Cl` [Example 130, Benzyl-[8-(2-chloro-4,6-dimethyl-phenyl)-2-trifluoromethyl-5,6,7,8-tetrahydro-imidazo[1,2-a]pyrimidin-3-ylmethyl]-propyl-amine], the Ki was less than 1000 nM.

In the case of `C=CCN(CCC)Cc1c(C(F)(F)F)nc2n1CCCN2c1c(C)cc(C)cc1Cl` [Example 131, Allyl-[8-(2-chloro-4,6-dimethyl-phenyl)-2-trifluoromethyl-5,6,7,8-tetrahydro-imidazo[1,2-a]pyrimidin-3-ylmethyl]-propyl-amine], the inhibitory constant (Ki) was less than 100 nM. For `CCCN(Cc1ccc(F)cc1)Cc1c(C(F)(F)F)nc2n1CCCN2c1c(C)cc(C)cc1Cl` [Example 132, [8-(2-Chloro-4,6-dimethyl-phenyl)-2-trifluoromethyl-5,6,7,8-tetrahydro-imidazo[1,2-a]pyrimidin-3-ylmethyl]-(4-fluoro-benzyl)-propyl-amine], the inhibitory constant (Ki) was less than 1000 nM.

As to `Cc1cc(C)c(N2CCCn3c2nc(C(F)(F)F)c3CN(CCC(F)(F)F)Cc2cccc(F)c2)c(Cl)c1` [Example 133, [8-(2-Chloro-4,6-dimethyl-phenyl)-2-trifluoromethyl-5,6,7,8-tetrahydro-imidazo[1,2-a]pyrimidin-3-ylmethyl]-(3-fluoro-benzyl)-(3,3,3-trifluoro-propyl)-amine], the Ki was less than 1000 nM. The same measure for `CCCN(Cc1cccc(F)c1)Cc1c(C(F)(F)F)nc2n1CCCN2c1c(C)cc(C)cc1Cl` [Example 134, [8-(2-Chloro-4,6-dimethyl-phenyl)-2-trifluoromethyl-5,6,7,8-tetrahydro-imidazo[1,2-a]pyrimidin-3-ylmethyl]-(3-fluoro-benzyl)-propyl-amine]: less than 1000 nM. The same measure for `Cc1cc(C)c(N2CCCn3c2nc(C(F)(F)F)c3CN(CC2CC2)CC(F)(F)F)c(Cl)c1` [Example 135, [8-(2-Chloro-4,6-dimethyl-phenyl)-2-trifluoromethyl-5,6,7,8-tetrahydro-imidazo[1,2-a]pyrimidin-3-ylmethyl]-cyclopropylmethyl-(2,2,2-trifluoroethyl)-amine]: less than 100 nM; for `CCN(Cc1c(C(F)(F)F)nc2n1CCCN2c1c(C)cc(C)cc1Cl)CC1CCC1` [Example 137, [8-(2-Chloro-4,6-dimethyl-phenyl)-2-trifluoromethyl-5,6,7,8-tetrahydro-imidazo[1,2-a]pyrimidin-3-ylmethyl]-cyclobutylmethyl-ethyl-amine]: less than 1000 nM; for `Cc1cc(C)c(N2CCCn3c2nc(C(F)(F)F)c3CN2CCCC2Cc2ccccc2)c(Cl)c1` (stereo not drawn) [Example 138, 3-(2-Benzyl-pyrrolidin-1-ylmethyl)-8-(2-chloro-4,6-dimethyl-phenyl)-2-trifluoromethyl-5,6,7,8-tetrahydro-imidazo[1,2-a]pyrimidine]: less than 100 nM.

For `CCCN(CC1CC1)C(=O)c1c(C)nc2n(-c3c(C)cc(C)cc3C)c3ccc(F)cc3n12` [Example 139, 5-Fluoro-2-methyl-8-(2,4,6-trimethyl-phenyl)-8H-1,3a,8-triaza-cyclopenta[α]indene-3-carboxylic acid cyclopropylmethyl-propyl-amide], the inhibition constant (Ki) was less than 10000 nM. As for `CCCN(CC1CC1)C(=O)c1c(C)nc2n(-c3c(C)cc(C)cc3C)c3ccccc3n12` [Example 140, 2-Methyl-8-(2,4,6-trimethyl-phenyl)-8H-1,3a,8-triaza-cyclopenta[α]indene-3-carboxylic acid cyclopropylmethyl-propyl-amide], the figure is less than 1000 nM. As for `CCCN(CC1CC1)C(=O)c1c(CC)nc2n(-c3c(C)cc(C)cc3C)c3ccccc3n12` [Example 141, 2-Ethyl-8-(2,4,6-trimethyl-phenyl)-8H-1,3a,8-triaza-cyclopenta[a]indene-3-carboxylic acid cyclopropylmethyl-propyl-amide], the figure is less than 1000 nM; as for `CCCN(CC1CC1)C(=O)c1c(C(F)(F)F)nc2n(-c3c(C)cc(C)cc3C)c3ccccc3n12` [Example 142, 2-trifluoromethyl-8-(2,4,6-trimethylphenyl)-8H-1,3a,8-triaza-cyclopenta[a]indene-3-carboxylic acid cyclopropylmethyl-propyl-amide], less than 10000 nM. The same measure for `CCCN(CC1CC1)C(=O)c1c(C)nc2n(-c3ccc(Cl)cc3Cl)c3ccccc3n12` [Example 143, 8-(2,4-Dichloro-phenyl)-2-methyl-8H-1,3a,8-triaza-cyclopenta[a]indene-3-carboxylic acid cyclopropylmethyl-propyl-amide]: less than 10000 nM. For `CCCN(CC1CC1)C(=O)c1c(CC)nc2n(-c3c(C)cc(C)cc3C)c3ccc(F)cc3n12` [Example 144, 2-Ethyl-5-fluoro-8-(2,4,6-trimethyl-phenyl)-8H-1,3a,8-triaza-cyclopenta[a]indene-3-carboxylic acid cyclopropylmethyl-propyl-amide], the Ki is less than 100 nM.

`CCCN(Cc1c(C)nc2n(-c3c(C)cc(C)cc3C)c3ccc(F)cc3n12)CC1CC1` [Example 145, Cyclopropylmethyl-[5-fluoro-2-methyl-8-(2,4,6-trimethyl-phenyl)-8H-1,3a,8-triaza-cyclopenta[a]inden-3-ylmethyl]-propyl-amine]: the inhibition constant (Ki) is less than 100 nM.

For the compound `CCCN(Cc1c(C)nc2n(-c3c(C)cc(C)cc3C)c3ccccc3n12)CC1CC1` [Example 146, Cyclopropylmethyl-[2-methyl-8-(2,4,6-trimethyl-phenyl)-8H-1,3a,8-triaza-cyclopenta[α]inden-3-ylmethyl]-propyl-amine], the Ki is less than 100 nM. Turning to `CCCN(Cc1c(CC)nc2n(-c3c(C)cc(C)cc3C)c3ccccc3n12)CC1CC1` [Example 147, Cyclopropylmethyl-[2-ethyl-8-(2,4,6-trimethyl-phenyl)-8H-1,3a,8-triaza-cyclopenta[a]inden-3-ylmethyl]-propyl-amine], the Ki is less than 100 nM. The same measure for `CCCN(Cc1c(C(F)(F)F)nc2n(-c3c(C)cc(C)cc3C)c3ccccc3n12)CC1CC1` [Example 148, Cyclopropylmethyl-propyl-[2-trifluoromethyl-8-(2,4,6-trimethyl-phenyl)-8H-1,3a,8-triaza-cyclopenta[α]inden-3-ylmethyl]-amine]: less than 100 nM; for `CCCN(Cc1c(CC)nc2n(-c3c(C)cc(C)cc3C)c3ccc(F)cc3n12)CC1CC1` [Example 149, Cyclopropylmethyl-[2-ethyl-5-fluoro-8-(2,4,6-trimethyl-phenyl)-8H-1,3a,8-triaza-cyclopenta[α]inden-3-ylmethyl]-propyl-amine]: less than 1000 nM.

Consider `Cc1cc(C)c(-n2c3ccccc3n3c(CN(CC4CC4)CC(F)(F)F)c(C(F)(F)F)nc23)c(C)c1` [Example 150], for which the Ki was less than 100 nM. With `Cc1cc(C)c(-n2c3ccccc3n3c(CN(CC4CC4)CC4CC4)c(C(F)(F)F)nc23)c(C)c1` [Example 151, Bis-cyclopropylmethyl-[2-trifluoromethyl-8-(2,4,6-trimethyl-phenyl)-8H-1,3a,8-triaza-cyclopenta[α]inden-3-ylmethyl]-amine], the Ki is less than 100 nM.

As for `Cc1cc(C)c(-n2c3ccccc3n3c(CN(CCC(F)(F)F)CC4CC4)c(C(F)(F)F)nc23)c(C)c1` [Example 152, Cyclopropylmethyl-[2-trifluoromethyl-8-(2,4,6-trimethyl-phenyl)-8H-1,3a,8-triaza-cyclopenta[α]inden-3-ylmethyl]-(3,3,3-trifluoro-propyl)-amine], the inhibitory constant (Ki) was less than 100 nM.
